One test deals with lptB1(G33C). Description: Disk diffusion assay. In kind it is cell-based, E. coli. The method, then:
(§1) Zones of inhibition were measured in disk diffusion assays of wild type, IptB1, and suppressors IptB1(R144H) and IptB1(G33C) pictured in FIG. 6B. Assays were conducted with 6-mm disks. Numbers outside of parentheses report the diameter of the zone of total growth inhibition (in mm), while numbers inside parenthesis report the diameter of the zone of partial growth inhibition.
(§2) Disk diffusion assays were performed as described in Sherman et al., Proc. Natl. Acad. Sci. USA 2014, 111, 4982-4987. Premade Sensi-Disc (BD-Beckton, Dickinson and Company) were used for bacitracin 10IU, erythromycin 15 μg, novobiocin 30 μg, and rifampin 5 μg.

For a further test, the system named is lptB1(R144H). As to the kind of experiment: Disk diffusion assay. In kind it is cell-based, E. coli. Particulars: for Zone of inhibition, diameter of the zone of total growth inhibition: 6-mm disks, bacitracin 10IU, erythromycin 15 μg, novobiocin 30 μg, rifampin 5 μg, nalidixic acid 5 μg. On the procedure:
as §1, §2
On the technique in general: Agar diffusion results depend on both activity and mobility in agar.

The test system of a further test is lptB1. As to the kind of experiment: Disk diffusion assay. Particulars: for zone of inhibition at 5 µg/disc / zone of inhibition at 15 µg/disc: Escherichia coli; for Zone of inhibition, diameter of the zone of total growth inhibition: 6-mm disks, bacitracin 10IU, erythromycin 15 μg, novobiocin 30 μg, rifampin 5 μg, nalidixic acid 5 μg. In kind it is cell-based, E. coli. The method, then:
as §1, §2

The next test relates to wild type. As to the kind of experiment: Disk diffusion assay. In kind it is cell-based, E. coli. The conditions noted are these: 6-mm disks, bacitracin 10IU, erythromycin 15 μg, novobiocin 30 μg, rifampin 5 μg, nalidixic acid 5 μg. The method, then:
as §1, §2

The subject of another test is IptFG(ch) mutant. As to the kind of experiment: Rescue of growth of coupling helix mutant (plating and disk assays). In kind it is cell-based, E. coli. The conditions noted are these: disks on LB plates, each disk 5 μg compound (FIG. 15). On the procedure:
FIG. 8B is a series of pictures of bacterial overnight cultures grown in minimal medium. The cultures were serially diluted ten-fold and spotted onto LB agar plates with and without compounds.
FIG. 15 is a picture of bacterial lawns grown on plates in the presence of disks containing antibiotics. […] Strains were grown overnight in minimal media and then plated on LB plates. Each disk contained 5 μg compound.
The coupling helices in LptFG each contain a strictly-conserved glutamate, and changing both glutamates to alanine (IptFG(ch)) causes a lethal loss of function (FIG. 8B, LB panel). […] Because novobiocin also contacts R91 (FIG. 7C), we speculated that it might rescue growth of IptFG(ch) by masking the charge. […] We conclude that novobiocin suppresses Lpt defects in vivo by interacting with LptB at R91; therefore, novobiocin interacts with LptB in cells in a similar manner to that observed in the crystal structure.
as §2
Efficiency of plating assays were performed on indicated media using the method described in Butler et al., J. Bacteriol. 2013, 195, 4639-4649.

Another test deals with T1, LptB (Escherichia coli, UniProt P0A9V1).
T1 construct: LptB-His (full-length LptB with a C-terminal His8 tag); His8 (C); made in house; host or cells: E. coli KRX (Promega)
Description: Fbn-LptB binding assay (19F NMR linewidth). Details: species or system E. coli. On the procedure: FIG. 12 is a graph showing the ^19F NMR linewidth of fluorobiocin (fbn) plotted vs. log[LptB]. Data were analyzed with GraphPad Prism 7 software using a nonlinear fit, log(agonist) vs. response with an R^2=0.9909.
We soaked novobiocin into LptB-ADP crystals and obtained a 2.0-Å structure of a co-complex (FIG. 7A, FIG. 11). ADP is still present in the co-complex, and novobiocin binds adjacent to the groove in LptB that accommodates the coupling helices from LptFG (FIG. 7B, FIG. 11). Coupling helices are a conserved motif in ABC systems that connect the transmembrane domains (here, LptFG) to the nucleotide-binding domains (here, LptB). […] This residue is invariant in LptB, and non-conservative substitutions at this position are lethal because they disrupt proper formation of the LptB2FG complex. Novobiocin thus binds a critical position at the LptBLptFG interface. To estimate the affinity of novobiocin for LptB, we synthesized an otherwise identical analogue in which a phenolic hydroxyl was substituted with a 19F-label (fluorobiocin, FIG. 8A).
5 mL of the buffered Fbn ligand solution was prepared by mixing 200 μL of 25X TBS pH 8.0, 125 μL 200 mM ADP pH 7.0, 125 μL 200 mM MgCl2, 4.43 μL of 56.5 mM Fbn, 4.55 mL of D20. Final [Tris-Cl]=50 mM, [NaCl]=150 mM, [ADP]=5 mM, [MgCl2]=5 mM, [Fbn]=50 μM. […]

[1] abbreviates: Escherichia coli, read-out: Zone of inhibition, diameter of the zone of partial growth inhibition (in parentheses).
Setting [2] is: Escherichia coli, read-out: Zone of inhibition, diameter of the zone of total growth inhibition.
[3] abbreviates: read-out: Zone of inhibition, diameter of the zone of partial growth inhibition (in parentheses).
Setting [4] is: read-out: Zone of inhibition, diameter of the zone of total growth inhibition.
Where [5] appears, read: 6-mm disks, bacitracin 10IU, erythromycin 15 μg, novobiocin 30 μg, rifampin 5 μg, nalidixic acid 5 μg.

pKd: −log10 of the molar value. Where two headings read alike, the source gives them in different places. Bridge positions count the residues as written; N and C are the ends. Square brackets hold non-standard residues; d marks the D form. Peptide text beside a SMILES is read from it. * marks the point of attachment. Ileψ(thiazoline)Cys = CC[C@H](C)[C@H](N)C1=N[C@H](C(=O)*)CS1; dOrn = NCCC[C@@H](N)C(=O)O

T1 sequence (P0A9V1 whole entry): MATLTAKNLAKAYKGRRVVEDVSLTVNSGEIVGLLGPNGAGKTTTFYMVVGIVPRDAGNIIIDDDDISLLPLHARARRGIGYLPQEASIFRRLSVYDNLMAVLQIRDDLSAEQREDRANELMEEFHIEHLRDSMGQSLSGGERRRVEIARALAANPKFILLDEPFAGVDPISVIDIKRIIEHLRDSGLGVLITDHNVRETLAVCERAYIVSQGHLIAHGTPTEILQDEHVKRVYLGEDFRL

`CCn1cc(C(=O)O)c(=O)c2ccc(C)nc21` [Nalidixic acid]: the zone of inhibition at 5 µg/disc with lptB1(G33C) (setting [1]) was 14 mm; in the test on lptB1(G33C) (setting [2]) it was 12 mm; in the test on lptB1(R144H) (setting [1]) it was 20 mm; in the test on lptB1(R144H) (setting [2]), 17 mm; with lptB1 (setting [3]) it was 21 mm; in the test with lptB1 (setting [4]), 18 mm. Also, the zone of inhibition at 5 µg/disc with wild type (setting [1]) was 14 mm; in the test with wild type (setting [2]), 11 mm. The “suppression of lethality of IptFG(ch)” value in the test with IptFG(ch) mutant is recorded as “but not nalidixic acid (NA), suppressed the lethality of IptFG(ch)”.

Take `CC[C@H](C)[C@H](N)C1=N[C@H](C(=O)N[C@@H](CC(C)C)C(=O)N[C@H](CCC(=O)O)C(=O)N[C@H](C(=O)N[C@H]2CCCCNC(=O)[C@H](CC(N)=O)NC(=O)[C@@H](CC(=O)O)NC(=O)[C@H](Cc3cnc[nH]3)NC(=O)[C@@H](Cc3ccccc3)NC(=O)[C@H]([C@@H](C)CC)NC(=O)[C@@H](CCCN)NC2=O)[C@@H](C)CC)CS1` [Bacitracin] ({Ileψ(thiazoline)Cys}-L[dE]IK[dOrn]I[dF]H[dD]N; lactam 4-C): the “Zone of inhibition, diameter of the zone of partial growth inhibition (in parentheses)” value in the test with lptB1(G33C) (setting [5]) is on record as “(8) mm”. Besides, the “Zone of inhibition, diameter of the zone of total growth inhibition” value was 17 mm in the test on lptB1(R144H), 17 mm in the test with lptB1 and <6 mm with wild type.

With `CO[C@@H]1[C@@H](OC(N)=O)[C@@H](O)[C@H](Oc2ccc3c(O)c(NC(=O)c4ccc(F)c(CC=C(C)C)c4)c(=O)oc3c2C)OC1(C)C` [fluorobiocin, (3R,4S,5R,6R)-6-((3-(4-fluoro-3-(3-methylbut-2-en-1-yl)benzamido)-4-hydroxy-8-methyl-2-oxo-2H-chromen-7-yl)oxy)-5-hydroxy-3-methoxy-2,2-dimethyltetrahydro-2H-pyran-4-yl carbamate], the pKd on LptB (19F NMR linewidth vs. log[LptB], nonlinear fit, [Fbn]=50 μM, 5 mM ADP) is 4.74. In addition, at LptB (Solution NMR binding experiments), the “affinity for LptB in words” value is on record as “low micromolar binder”.

For the compound `CO[C@H]1/C=C/O[C@@]2(C)Oc3c(C)c(O)c4c(O)c(c(/C=N/N5CCN(C)CC5)c(O)c4c3C2=O)NC(=O)/C(C)=C\C=C\[C@H](C)[C@H](O)[C@@H](C)[C@@H](O)[C@@H](C)[C@H](OC(C)=O)[C@@H]1C` [Rifampicin], the “Zone of inhibition, diameter of the zone of total growth inhibition” value was 9 mm in the test on lptB1(G33C) (setting [5]), 24 mm in the test with lptB1(R144H), 17 mm in the test with lptB1 and 8 mm with wild type. Also, the “Zone of inhibition, diameter of the zone of partial growth inhibition (in parentheses)” value in the test with wild type worked out at 9 mm.

For the compound `CC[C@H]1OC(=O)[C@H](C)[C@@H](O[C@H]2C[C@@](C)(OC)[C@@H](O)[C@H](C)O2)[C@H](C)[C@@H](O[C@@H]2O[C@H](C)C[C@H](N(C)C)[C@H]2O)[C@](C)(O)C[C@@H](C)C(=O)[C@H](C)[C@@H](O)[C@]1(C)O` [Erythromycin], the zone of inhibition at 15 µg/disc stood at 11 mm in the test with lptB1(G33C) (setting [1]); 16 mm with lptB1(R144H) (setting [1]); 21 mm in the test on lptB1 (setting [3]); 16 mm in the test with lptB1 (setting [4]); 8 mm in the test on wild type (setting [1]).

The zone of inhibition is the size of the clear area around the sample on an inoculated plate. Usually pKd stands for −log10 of the Kd, conventionally taken in molar units. Read a low pKd as a high Kd.
